Results from patent US11274095B2, “Modulators of methyl modifying enzymes, compositions and uses thereof” (Constellation Pharmaceuticals, Inc., priority 2018, dated 2022).

Columns and labels:
PRC2 containing wt EZH2 = PRC2 containing wt EZH2 (Homo sapiens (Human), UniProt Q15910); test: EZH2 biochemical assay (IC50), 3H-SAM incorporation into biotinylated H3 peptide; details: 30 pM PRC2 with wt EZH2, 3-5 h pre-incubation
Method: EZH2 biochemical assay (IC50): Compound potencies were assessed through incorporation of ^3H-SAM into a biotinylated H3 peptide. Specifically, 30 pM PRC2 containing wt EZH2 (pentameric complex prepared in-house) was pre-incubated with 450 nM SAM, 450 nM ^3H-SAM, 2 μM H3K27me3 activating peptide (H2N-RKQLATKAAR(Kme3)SAPATGGVKKP-amide) and compounds (as 10 point duplicate dose response titrations in DMSO, final assay 0.8% DMSO (v/v)) for 3-5 h in 50 mM Tris (pH 8.5), 1 mM DTT, 0.07 mM Brij-35, 0.1% BSA, and 0.8% DMSO in a total volume of 12.5 μl. Reaction was initiated with biotinylated H3 substrate peptide (H2N-RKQLATKAAR(Kmel)SAPATGGVKKP-NTPEGBiot) as a 2 μM stock in 12.5 μl of buffer and allowed to react at room temperature for 18-22 h. Quenching was accomplished by addition of 20 μl of STOP solution (50 mM Tris (pH 8.5), 200 mM EDTA, 2 mM SAH). 35 μl of the quenched solution was transferred to streptavidin coated FlashPlates (PerkinElmer), incubated 1-2 h, washed, and read in a TopCount Reader (PerkinElmer). IC50s were calculated in Genedata Screener using non-linear least square four parameter fits, where the four parameters were IC50, Hill slope, pre-transitional baseline (0% INH), and post-transitional baseline (100% INH).

H3K27me3 in Hela cells = test: H3K27me3 Alpha Hela Assay (AlphaLISA); type: cell-based
Method: H3K27me3 Alpha Hela Assay (AlphaLISA). Ten different doses of each test compound (in a series of 3-fold dilutions) were plated in duplicate 384-well tissue culture treated plates (Catalog #6007680; Perkin Elmer, Waltham, Mass.). Hela cells grown in culture were trypsinized and counted using a Countess® cell counter (Catalog #C10281; Life Technologies, Grand Island, N.Y.). Cell were diluted to 67,000 cells per mL in10% DMEM (Catalog #10569-010 Life Technologies, Grand Island, N.Y.) and 15 μL (1,000 cells) were plated into each well using the Biotek MicroFlo™ Select Dispenser (BioTek Instruments, Inc. Vermont, USA),) of the 384-well plate. Plates were incubated at 37° C./5% CO2 for 72 hrs. One of the duplicate plates was processed for HeLa assay and the other for viability. 5 μL of Cell-Histone Lysis buffer (1×) (Catalog #AL009F1 Perkin Elmer; Waltham, Mass.) per well was added to the plate processed for AlphaLISA and the plate was incubated at RT for 30 minutes on a plate shaker with low speed (Model# 4625-Q Thermo Scientific; Waltham, Mass.). Then, 10 μL per well Histone Extraction buffer (catalog #AL009F2; Perkin Elmer; Waltham, Mass.) was added and the plate further incubated at RT for 20 min on plate shaker with low speed. Next, 10 μL of 5× mix of anti-K27me3 acceptor beads plus Biotinylated anti-Histone H3 (C-ter) Antibody (diluted to 3 nM final) (Catalog #AL118 Perkin Elmer; Waltham, Mass.) was added in each well. Dilution of the acceptor beads and anti-Histone H3 was done in 1× Histone Detection buffer (Catalog #AL009F3 Perkin Elmer; Waltham, Mass.) which was produced by diluting the 10× stock provided. The plate was sealed with an aluminum plate sealer and incubated at 23° C. for 60 min. Next, 10 μL 5× solution of Streptavidin Donor beads were added (Catalog #6760002 Perkin Elmer; Waltham, Mass.) (20 μg/mL final in 1× Histone Detection Buffer), =plate was sealed with Aluminum plate sealer and incubated at 23° C. for 30 min. The plates were then read using an EnVision-Alpha Reader (model #2104 Perkin Elmer; Waltham, Mass.). […]

Karpas-422 cell lines = test: Karpas-422 viability assay (Cell Titer-Glo, Day 8); type: cell-based; details: Cell Titer-Glo on Day 8
Method: Karpas-422 cell lines were obtained from DSMZ (Braunschweig, Germany) and were grown in RPMI-1640 media. All media contained 10% fetal bovine serum (FBS) and 1% penicillin/streptomycin (Invitrogen). 20K cells per well were plated onto 96 well compound coated plates. Cells were split and seeded at original plating density (based on the DMSO well counts) every 4 days into plates containing fresh EZH2 inhibitors. Relative cell numbers were assessed by Cell Titer-Glo luminescent cell viability assay (Promega) on Day 8. GraphPad Prism 5 was used for curve fitting and GI50 values were reported.

[1] = Cellular permeability in MDCK assay; type: in vitro ADME; details: dog, pH 7.4, MDCK II, with P-gp inhibitor GF120918 10 μM; for efflux ratio at 2.5 h, 2 μM: Papp(BA)/Papp(AB)
Method: Cell culture: MDCK II cells (obtained from Piet Borst at the Netherlands Cancer Institute) were seeded onto […] (PET) in 96-well BD insert systems at 2.5×10^5 cells/mL until to 4-7 days for confluent cell monolayer formation.
Experimental procedure: Test and reference compounds (nadolol, metoprolol and digoxin) were diluted with transport buffer (HBSS with 10mM Hepes, pH7.4) from stock solution to a concentration of 2 μM (<1% DMSO) and applied to the apical (A) or basolateral (B) side of the cell monolayer. Permeation of the test compounds from A to B direction or B to A direction was determined in duplicate with P-gp inhibitor (GF120918, 10 μM). Digoxin was tested at 10 μM from A to B direction or B to A direction with/without P-gp inhibitor (GF120918, 10 μM) as well, while nadolol and metoprolol were tested at 2 μM in A to B direction without P-gp inhibitor (GF120918, 10 μM) in duplicate. The plate was incubated for 2.5 hours in CO2 incubator at 37±1° C., with 5% CO2 at saturated humidity without shaking. In addition, the efflux ratio of each compound was also determined. Test and reference compounds were quantified by LC/MS/MS analysis based on the peak area ratio of analyte/IS. After transport assay, Lucifer yellow rejection assay are applied to determine the cell monolayer integrity. Buffers are removed from both apical and basolateral chambers, followed by the addition of 75 μL of 100 μM lucifer yellow in transport buffer and 250 μL transport buffer in apical and basolateral chambers, respectively. The plate is incubated for 30 minutes at 37° C. with 5% CO2 and 95% relative humidity without shaking. After 30 minutes incubation, 20 μL of lucifer yellow samples are taken from the apical sides, followed by the addition of 60 μL of Transport Buffer. And then 80 μL of lucifer yellow samples are taken from the basolateral sides. The relative fluorescence unit (RFU) of lucifer yellow is measured at 425/528 nm (excitation/emission) with a Molecular Device M2e plate reader.
Data analysis: The apparent permeability coefficient Papp (cm/s) was calculated using the equation: Papp=(dCr/dt)×Vr/(A×C0) Where dCr/dt is the cumulative concentration of compound in the receiver chamber as a function of time (μM/s); Vr is the solution volume in the receiver chamber (0.075 mL on the apical side, 0.25 mL on the basolateral side); A is the surface area for the transport, i.e. 0.0804 cm2 for the area of the monolayer; C0 is the initial concentration in the donor chamber (μM).
The efflux ratio was calculated using the equation: Efflux Ratio=Papp(BA)/Papp(AB) Percent recovery was calculated using the equation: % Recovery=100×[(Vr×Cr)+(Vd×Cd)]/(Vd×C0) Where Vd is the volume in the donor chambers (0.075 mL on the apical side, 0.25 mL on the basolateral side); Cd and Cr are the final concentrations of transport compound in donor and receiver chambers, respectively.
Percent of lucifer yellow in basolateral well is calculated using the equation:
[formula] where RFUApical and RFUBasolateral are the relative fluorescence unit values of lucifer yellow in the apical and basolateral wells, respectively; VApical and VBasolateral are the volume of apical and basolateral wells (0.075 mL and 0.25 mL), respectively. Percent lucifer yellow should be less than 2.

[2] = Homo sapiens, KARPAS-422, 192 h

PRC2 containing wt EZH2, sequence (Q15910 whole entry): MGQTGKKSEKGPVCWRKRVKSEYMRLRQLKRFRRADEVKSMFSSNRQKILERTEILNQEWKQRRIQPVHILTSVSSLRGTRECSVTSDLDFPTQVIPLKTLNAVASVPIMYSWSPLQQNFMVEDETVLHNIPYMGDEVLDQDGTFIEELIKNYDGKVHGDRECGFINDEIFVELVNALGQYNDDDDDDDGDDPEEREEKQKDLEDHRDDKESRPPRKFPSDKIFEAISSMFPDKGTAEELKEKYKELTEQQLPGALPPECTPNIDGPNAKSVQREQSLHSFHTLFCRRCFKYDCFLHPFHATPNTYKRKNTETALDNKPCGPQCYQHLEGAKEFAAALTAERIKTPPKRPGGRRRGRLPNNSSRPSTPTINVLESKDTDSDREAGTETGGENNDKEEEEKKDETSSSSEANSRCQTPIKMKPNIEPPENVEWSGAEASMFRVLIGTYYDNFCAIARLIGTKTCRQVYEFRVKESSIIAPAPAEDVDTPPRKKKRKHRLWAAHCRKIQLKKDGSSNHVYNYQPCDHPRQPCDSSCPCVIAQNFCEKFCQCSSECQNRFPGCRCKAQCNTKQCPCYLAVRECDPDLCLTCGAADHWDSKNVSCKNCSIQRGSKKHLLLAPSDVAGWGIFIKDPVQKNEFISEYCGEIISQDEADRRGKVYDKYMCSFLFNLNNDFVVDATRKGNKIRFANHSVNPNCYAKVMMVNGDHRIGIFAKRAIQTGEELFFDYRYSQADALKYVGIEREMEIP
PRC2 containing wt EZH2, sequence (O75530 whole entry partner): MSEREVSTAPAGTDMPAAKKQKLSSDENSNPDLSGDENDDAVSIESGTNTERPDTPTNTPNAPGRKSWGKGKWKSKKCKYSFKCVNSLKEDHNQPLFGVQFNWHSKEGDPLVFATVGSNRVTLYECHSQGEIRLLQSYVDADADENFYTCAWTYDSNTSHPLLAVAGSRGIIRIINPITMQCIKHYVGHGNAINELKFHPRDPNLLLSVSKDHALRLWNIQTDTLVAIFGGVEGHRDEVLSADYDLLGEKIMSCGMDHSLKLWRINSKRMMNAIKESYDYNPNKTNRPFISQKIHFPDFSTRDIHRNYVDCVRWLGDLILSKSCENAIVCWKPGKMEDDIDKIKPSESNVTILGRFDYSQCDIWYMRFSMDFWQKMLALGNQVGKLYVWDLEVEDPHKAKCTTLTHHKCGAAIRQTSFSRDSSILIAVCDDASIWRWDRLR
PRC2 containing wt EZH2, sequence (Q15022 whole entry partner): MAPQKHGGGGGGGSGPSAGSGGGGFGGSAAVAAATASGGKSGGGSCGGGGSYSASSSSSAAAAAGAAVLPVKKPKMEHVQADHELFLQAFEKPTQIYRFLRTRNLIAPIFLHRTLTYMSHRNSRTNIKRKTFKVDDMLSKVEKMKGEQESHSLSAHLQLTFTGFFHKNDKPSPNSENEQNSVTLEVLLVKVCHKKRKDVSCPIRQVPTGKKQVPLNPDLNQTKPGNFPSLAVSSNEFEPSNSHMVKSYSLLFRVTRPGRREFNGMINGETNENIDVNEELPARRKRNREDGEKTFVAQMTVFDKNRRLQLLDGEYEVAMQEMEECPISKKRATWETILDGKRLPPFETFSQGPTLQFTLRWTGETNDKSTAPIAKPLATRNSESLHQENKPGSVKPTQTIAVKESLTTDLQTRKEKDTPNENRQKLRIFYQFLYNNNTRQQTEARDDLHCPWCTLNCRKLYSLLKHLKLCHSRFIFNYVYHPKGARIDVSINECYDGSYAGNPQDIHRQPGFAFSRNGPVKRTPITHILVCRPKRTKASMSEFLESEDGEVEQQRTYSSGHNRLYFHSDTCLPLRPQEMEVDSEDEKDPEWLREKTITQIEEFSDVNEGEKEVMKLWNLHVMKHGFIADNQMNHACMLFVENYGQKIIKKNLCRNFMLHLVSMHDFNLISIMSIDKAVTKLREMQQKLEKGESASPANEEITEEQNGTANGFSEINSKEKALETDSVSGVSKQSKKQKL
PRC2 containing wt EZH2, sequence (Q09028 whole entry partner): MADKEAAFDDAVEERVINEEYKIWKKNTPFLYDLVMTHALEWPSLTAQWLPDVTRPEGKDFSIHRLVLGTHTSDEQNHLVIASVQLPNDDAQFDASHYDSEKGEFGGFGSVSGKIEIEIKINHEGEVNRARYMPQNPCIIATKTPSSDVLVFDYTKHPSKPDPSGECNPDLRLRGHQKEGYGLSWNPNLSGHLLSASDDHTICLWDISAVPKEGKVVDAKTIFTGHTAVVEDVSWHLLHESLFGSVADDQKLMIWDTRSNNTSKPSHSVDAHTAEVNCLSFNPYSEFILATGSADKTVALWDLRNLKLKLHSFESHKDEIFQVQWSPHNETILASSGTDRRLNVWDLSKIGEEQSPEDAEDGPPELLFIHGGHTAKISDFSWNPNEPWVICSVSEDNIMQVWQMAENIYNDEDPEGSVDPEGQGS
PRC2 containing wt EZH2, sequence (Q6ZN18 whole entry partner): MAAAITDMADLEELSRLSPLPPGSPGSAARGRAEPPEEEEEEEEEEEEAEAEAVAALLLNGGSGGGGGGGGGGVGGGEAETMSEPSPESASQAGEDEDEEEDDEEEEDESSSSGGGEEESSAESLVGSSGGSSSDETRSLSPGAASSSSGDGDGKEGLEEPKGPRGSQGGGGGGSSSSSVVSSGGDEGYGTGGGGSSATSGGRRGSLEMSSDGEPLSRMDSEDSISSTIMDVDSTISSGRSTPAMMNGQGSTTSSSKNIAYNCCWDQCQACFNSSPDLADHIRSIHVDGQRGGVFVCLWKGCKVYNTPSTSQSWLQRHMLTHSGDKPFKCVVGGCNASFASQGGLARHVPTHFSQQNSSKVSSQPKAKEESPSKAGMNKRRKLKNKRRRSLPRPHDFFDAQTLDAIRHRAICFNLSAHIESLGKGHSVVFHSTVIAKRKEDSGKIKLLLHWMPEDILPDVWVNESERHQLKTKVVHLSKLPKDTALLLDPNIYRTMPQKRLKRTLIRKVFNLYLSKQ

| IC50 (PRC2 containing wt EZH2) [nM] | EC50 (H3K27me3 in Hela cells; Homo sapiens, HeLa, 72 h) [nM] | GI50 (Karpas-422 cell lines; [2]) [nM] | EC50 (H3K27me3 in Hela cells; 72 hrs) [nM] | GI50 (Karpas-422 cell lines) [nM] | Papp at 2.5 h, 2 μM [1] [×10⁻⁶ cm/s] | efflux ratio at 2.5 h, 2 μM [1] | Structure (SMILES) |
| --- | --- | --- | --- | --- | --- | --- | --- |
| 1.8 |  |  | 39 | 720 |  |  | CSc1cc(C)[nH]c(=O)c1CNC(=O)c1cc(Cl)c2c(c1C)OC(C)(C1CCC(NC3(C(F)(F)F)COC3)CC1)O2 (single isomer, unassigned) [Example 6-Enantiomer 1, 7-chloro-2,4-dimethyl-N-((6-methyl-4-(methylthio)-2-oxo-1,2-dihydropyridin-3-yl)methyl)-2-(4-((3-(trifluoromethyl)oxetan-3-yl)amino)cyclohexyl)benzo[d][1,3]dioxole-5-carboxamide] |
| 0.14 |  |  | 4.2 | 53 |  |  | CSc1cc(C)[nH]c(=O)c1CNC(=O)c1cc(Cl)c2c(c1C)OC(C)(C1CCC(NC3(C(F)(F)F)COC3)CC1)O2 (single isomer, unassigned) [Example 6-Enantiomer 2] |
| 8.6 |  |  |  |  |  |  | CSc1cc(C)[nH]c(=O)c1CNC(=O)c1cc(Cl)c2c(c1C)OC(C)(C1CCC(N3CC(F)(F)C3)CC1)O2 (single isomer, unassigned) [Example 7-Enantiomer 1] |
| 0.14 | 1.3 | 8.6 |  |  | 5.3 | 1.3 | CSc1cc(C)[nH]c(=O)c1CNC(=O)c1cc(Cl)c2c(c1C)OC(C)(C1CCC(NC3(CF)COC3)CC1)O2 (single isomer, unassigned) [Example 11 (geometric isomer 1)] |
| 0.18 |  |  | 1.7 |  |  |  | CSc1cc(C)[nH]c(=O)c1CNC(=O)c1cc(Cl)c2c(c1C)OC(C)(C1CCC(NC3(CF)COC3)CC1)O2 (single isomer, unassigned) [Example 11 (geometric isomer 2)] |
| 0.038 | 0.51 | 4 |  |  | 0.62 | 2.3 | CSc1cc(C)[nH]c(=O)c1CNC(=O)c1cc(Cl)c2c(c1C)O[C@@](C)([C@H]1CC[C@H](N(C)C)CC1)O2 [Example 4] |

Continued, compound first:

| Structure (SMILES) | IC50 (PRC2 containing wt EZH2) [nM] | EC50 (H3K27me3 in Hela cells; Homo sapiens, HeLa, 72 h) [nM] | GI50 (Karpas-422 cell lines; [2]) [nM] | EC50 (H3K27me3 in Hela cells; 72 hrs) [nM] | GI50 (Karpas-422 cell lines) [nM] | Papp at 2.5 h, 2 μM [1] [×10⁻⁶ cm/s] | efflux ratio at 2.5 h, 2 μM [1] |
| --- | --- | --- | --- | --- | --- | --- | --- |
| CSc1cc(Cl)[nH]c(=O)c1CNC(=O)c1cc(Cl)c2c(c1C)OC(C)(C1CCC(N3CC(OC(F)F)C3)CC1)O2 (single isomer, unassigned) [Example 2] | 1.5 | 15 | 250 |  |  |  |  |
| CSc1cc(C)[nH]c(=O)c1CNC(=O)c1cc(Cl)c2c(c1C)OC(C)(C1CCN(CC(F)(F)F)CC1)O2 (single isomer, unassigned) [Example 14-Enantiomer 1, 7-chloro-2,4-dimethyl-N-((6-methyl-4-(methylthio)-2-oxo-1,2-dihydropyridin-3-yl)methyl)-2-(1-(2,2,2-trifluoroethyl)piperidin-4-yl)benzo[d][1,3]dioxole-5-carboxamide] | 0.037 |  |  | 1.4 |  |  |  |
| CSc1cc(C)[nH]c(=O)c1CNC(=O)c1cc(Cl)c2c(c1C)OC(C)(C1CCN(CC(F)(F)F)CC1)O2 (single isomer, unassigned) [Example 14-Enantiomer 2, 7-chloro-2,4-dimethyl-N-((6-methyl-4-(methylthio)-2-oxo-1,2-dihydropyridin-3-yl)methyl)-2-(1-(2,2,2-trifluoroethyl)piperidin-4-yl)benzo[d][1,3]dioxole-5-carboxamide] | 7 |  |  | 210 |  | 13 | 0.56 |
| Cc1cc(Cl)c(CNC(=O)c2cc(Cl)c3c(c2C)OC(C)(C2CCN(CC(F)(F)F)CC2)O3)c(=O)[nH]1 (single isomer, unassigned) [Example 16-Enantiomer 1, 7-chloro-N-((4-chloro-6-methyl-2-oxo-1,2-dihydropyridin-3-yl)methyl)-2,4-dimethyl-2-(1-(2,2,2-trifluoroethyl)piperidin-4-yl)benzo[d][1,3]dioxole-5-carboxamide] | 0.31 |  |  | 22 |  |  |  |
| Cc1cc(Cl)c(CNC(=O)c2cc(Cl)c3c(c2C)OC(C)(C2CCN(CC(F)(F)F)CC2)O3)c(=O)[nH]1 (single isomer, unassigned) [Example 16-Enantiomer 2, 7-chloro-N-((4-chloro-6-methyl-2-oxo-1,2-dihydropyridin-3-yl)methyl)-2,4-dimethyl-2-(1-(2,2,2-trifluoroethyl)piperidin-4-yl)benzo[d][1,3]dioxole-5-carboxamide] | > 10 |  |  | > 300 |  |  |  |
| CSc1cc(Cl)[nH]c(=O)c1CNC(=O)c1cc(Cl)c2c(c1C)O[C@@](C)([C@H]1CC[C@H](N(C)C)CC1)O2 [Example 3, (R)-7-chloro-N-((6-chloro-4-(methylthio)-2-oxo-1,2-dihydropyridin-3-yl)methyl)-2-(trans-4-(dimethylamino)cyclohexyl)-2,4-dimethylbenzo[d][1,3]dioxole-5-carboxamide] | 0.37 | 2.4 | 29 |  |  | 3.7 | 1.2 |
